The assay addresses T1, Human TRPV1 expressing CHO cells (Homo sapiens, UniProt Q8NER1).
T1 construct: expressed in transfected cells; host or cells: CHO cells under G-418 selection
Briefly: Screening for TRPV1 antagonist using the 45Calcium uptake assay (inhibition of capsaicin induced cellular uptake of radioactive calcium). The format is cell-based. The settings on record: for inhibition at 1 µM: CHO; for inhibition at 1 µM / % inhibition of ^45Ca uptake at 1 μM: test compound 1 μM, capsaicin 250 nM, relative to maximum ^45Ca uptake induced by capsaicin alone; for IC50: inhibition of capsaicin (250 nM) induced ^45Ca uptake. On the procedure: The inhibition of TRPV1 receptor activation was followed as inhibition of capsaicin induced cellular uptake of radioactive calcium which represents calcium influx exclusively through the plasma membrane associated TRPV1 receptor.
Stock solution of capsaicin was made in ethanol and test compounds in 100% DMSO. Stock solutions were diluted to appropriate final concentrations in assay buffer keeping the final DMSO concentration between 0.1% and 0.55%.
^45Ca was used at a final concentration of 2.5 μCi/ml (^45Ca, ICN).
Assay buffer was composed of F-12 DMEM medium supplemented with 1.8 mM CaCl2 (final conc.) and 0.1% Bovine serum albumin. (BSA from SIGMA)
Wash buffer was tyrodes solution supplemented with 0.1% BSA and 1.8 mM calcium. Lysis buffer contained 50 mM Tris-HCl, pH7.5, 150 mM NaCl, 1% Triton X-100, 0.5% deoxycholate and 0.1% Sodium dodicyl sulphate (SDS, SIGMA)
Assay was carried out with some modifications the of procedure as described by Toth et. al. (See Toth A et. al., Life Sciences 73 p 487-498, 2003). Human TRPV1 expressing CHO cells were grown in F-12 DMEM (Dulbecco's modified Eagle's medium—GIBCO) medium with 10% FBS (fetal bovine serum Hyclone), 1% penicillin-streptomycin solution, 400 μg/ml of G-418. Cells were seeded 48 h prior to the assay in 96 well plates so as to get ˜50,000 cells per well on the day of experiment. Plates were incubated at 37° C. in the presence of 5% CO2. Cells were then washed twice with 200 μl of assay buffer and re-suspended in 144 μl of the same. Assay was carried out at 30° C. in total volume of 200 μl. Test compounds were added to the cells fifteen minutes before addition of capsaicin, Final concentration of capsaicin in the assay was 250 nM. After 5 minutes of agonist treatment, drug was washed out and wells rinsed with 300 μl of ice cold wash buffer 3×. The cells were lysed in 50 μl lysis buffer for 20 min. 40 μl of cell lysate was mixed with 150 μl of Microscint PS, left overnight for equilibration. Radioactivity in samples was measured as counts per minute (cpm) using Packard Biosciences Top Count. The drug/vehicle/capsaicin treated ^45Ca uptake values were normalized over basal ^45Ca value. Data was expressed as % inhibition of ^45Ca uptake by test compound with respect to maximum ^45Ca uptake induced by capsaicin alone. IC50 value was calculated from dose response curve by nonlinear regression analysis using GraphPadPRISM software.

Results on 21 compounds are retold here after patent publication US7842703B2, “Substituted benzofused derivatives and their use as vanilloid receptor ligands” (Glenmark Pharmaceuticals S.A., priority 2005, dated 2010).

Molecules are shown by their SMILES.

T1 sequence (Q8NER1 whole entry): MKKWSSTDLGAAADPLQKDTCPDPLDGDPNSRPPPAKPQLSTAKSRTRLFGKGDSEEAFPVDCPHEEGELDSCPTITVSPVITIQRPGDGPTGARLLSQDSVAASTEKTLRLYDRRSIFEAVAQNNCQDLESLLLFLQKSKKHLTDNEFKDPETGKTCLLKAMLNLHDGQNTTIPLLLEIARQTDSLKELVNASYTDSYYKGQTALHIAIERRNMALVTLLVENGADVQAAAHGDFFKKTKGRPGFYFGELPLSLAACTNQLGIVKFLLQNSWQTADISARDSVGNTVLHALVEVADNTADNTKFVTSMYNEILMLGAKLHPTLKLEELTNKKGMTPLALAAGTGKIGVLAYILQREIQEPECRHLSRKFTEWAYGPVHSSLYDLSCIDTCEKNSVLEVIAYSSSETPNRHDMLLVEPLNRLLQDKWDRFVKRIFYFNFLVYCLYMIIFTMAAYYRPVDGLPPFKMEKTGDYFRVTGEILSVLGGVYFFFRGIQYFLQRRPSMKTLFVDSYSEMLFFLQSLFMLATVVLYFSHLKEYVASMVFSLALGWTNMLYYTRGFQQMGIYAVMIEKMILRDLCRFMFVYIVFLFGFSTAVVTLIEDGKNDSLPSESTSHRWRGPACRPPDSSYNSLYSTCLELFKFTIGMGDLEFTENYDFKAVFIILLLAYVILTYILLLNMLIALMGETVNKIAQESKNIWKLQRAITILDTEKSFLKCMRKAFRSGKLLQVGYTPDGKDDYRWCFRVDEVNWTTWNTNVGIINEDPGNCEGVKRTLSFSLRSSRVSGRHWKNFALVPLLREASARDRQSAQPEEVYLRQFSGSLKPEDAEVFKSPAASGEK

As to `Cc1cc2c(NC(=O)NC3CC4(CCC4)Oc4ccc(F)cc43)cccc2cn1` (racemic) [Example 72, (±) 1-(3,4-Dihydro-6-fluoro-spiro[2H-1-benzopyran-2,1′-cyclobutane]-4-yl)-3-(3-methylisoquinolin-5-yl)urea], the inhibition at 1 µM is above 50% and the IC50 is 469 nM. For `Cc1cc2c(NC(=O)NC3CC4(CCC4)Oc4ccc(Cl)cc43)cccc2cn1` (racemic) [Example 73, (±) 1-(6-Chloro-3,4-dihydro-spiro[2H-1-benzopyran-2,1′-cyclobutane]-4-yl)-3-(3-methylisoquinolin-5-yl)urea] the same measures were above 50% and 1260 nM.

In the case of `Cc1nccc2c(NC(=O)NC3CC4(CCC4)Oc4ccc(Cl)cc43)cccc12` (racemic) [Example 74, (±) 1-(6-Chloro-3,4-dihydro-spiro[2H-1-benzopyran-2,1′-cyclobutane]-4-yl-3-(1-methylisoquinolin-5-yl)urea], the inhibition at 1 µM is above 50% and the IC50 turned out to be 917 nM. For `Cc1nccc2c(NC(=O)NC3CC4(CCC4)Oc4ccc(F)cc43)cccc12` (racemic) [Example 75, (±) 1-(3,4-Dihydro-6-fluoro-spiro[2H-1-benzopyran-2,1′-cyclobutane]-4-yl)-3-(1-methylisoquinolin-5-yl)urea] the same measures were above 50% and 23 nM. The corresponding values for `O=C(Nc1cccc2cnccc12)NC1CC2(CCC2)Oc2ccc([N+](=O)[O-])cc21` (racemic) [Example 77, (±) 1-(3,4-Dihydro-6-nitro-spiro[2H-1-benzopyran-2,1′-cyclobutane]-4-yl)-3-(isoquinolin-5-yl)urea] are above 50% and 463 nM. On to `CC(=O)Nc1ccc2c(c1)C(NC(=O)Nc1cccc3cnccc13)CC1(CCC1)O2` (racemic) [Example 78, (±) 1-(6-Acetamido-3,4-dihydro-spiro[2H-1-benzopyran-2,1′-cyclobutane]-4-yl)-3-(isoquinolin-5-yl)urea], for which the inhibition at 1 µM is below 50%. Turning to `Nc1ccc2c(c1)C(NC(=O)Nc1cccc3cnccc13)CC1(CCC1)O2` (racemic) [Example 79, (±) 1-(6-Amino-3,4-dihydro-spiro[2H-1-benzopyran-2,1′-cyclobutane]-4-yl)-3-(isoquinolin-5-yl)urea], the inhibition at 1 µM is below 50%. `O=C(Nc1cccc2cnccc12)NC1CC2(CCC2)Sc2ccccc21` (racemic) [Example 81, (±) 1-(3,4-dihydro-spiro[2H-1-benzothiopyran-2,1′-cyclobutan]-4-yl)-3-(isoquinolin-5-yl)urea]: the inhibition at 1 µM was above 50% and the concentration for half-maximal inhibition (IC50) was 5.2 nM. Regarding `O=C(Nc1cccc2cnccc12)NC1CC2(CCC2)S(=O)(=O)c2ccccc21` (racemic) [Example 82, (±) 1-(1,1-dioxo-3,4-dihydro-spiro[2H-1-benzothiopyran-2,1′cyclobutane]-4-yl)-3-(isoquinolin-5-yl)urea], the IC50 is 224 nM and the “% inhibition of ^45Ca uptake at 1 μM” value is given as above 50%. On to `O=C(Nc1cccc2cnccc12)NC1CC2(CCC2)Oc2ccccc21` (single isomer, unassigned; (+)) [Example 4, (+) 1-(3,4-Dihydro-spiro-[2H-1-benzopyran-2,1′-cyclobutan]-4-yl)-3-(isoquinolin-5-yl)urea], for which the inhibition at 1 µM was above 50% and the IC50 came to 7.8 nM.

On to `O=C(Nc1cccc2c[n+]([O-])ccc12)NC1CC2(CCC2)Oc2ccccc21` (single isomer, unassigned; (+)) [Example 10, (+) 1-(3,4-Dihydro-spiro[2H-1-benzopyran-2,1′-cyclobutane]-4-yl)-3-(2-oxoisoquinolin-5-yl)urea], for which the inhibition at 1 µM is above 50% and the IC50 was found to be 104 nM. The corresponding values for `O=C(Nc1cccc2cnccc12)NC1CC2(CCC2)Oc2ccc(F)cc21` (single isomer, unassigned; (+)) [Example 43, (+) 1-(3,4-Dihydro-6-fluoro-spiro[2H-1-benzopyran-2,1′-cyclobutane]-4-yl)-3-(isoquinolin-5-yl)urea] are above 50% and 5.2 nM.

Take `O=C(Nc1cccc2cnccc12)NC1CC2(CCC2)Oc2c(F)cc(F)cc21` (single isomer, unassigned; (+)) [Example 59]: the inhibition at 1 µM is above 50% and the half-inhibitory concentration (IC50) was determined as 7.59 nM.

As for `O=C(Nc1cccc2cnccc12)NC1CC2(CCC2)Oc2ccccc21` (single isomer, unassigned; (-)) [Example 5, (−) 1-(3,4-Dihydro-spiro-[2H-1-benzopyran-2,1′-cyclobutan]-4-yl)-3-(isoquinolin-5-yl)urea], the IC50 is 304 nM and the “% inhibition of ^45Ca uptake at 1 μM” value was above 50%. On to `O=C(Nc1cccc2cnccc12)NC1CC2(CCC2)Oc2ccc(F)cc21` (single isomer, unassigned; (-)) [Example 44, (−) 1-(3,4-Dihydro-6-fluorospiro[2H-1-benzopyran-2,1′-cyclobutane]-4-yl)-3-(isoquinolin-5-yl)urea], for which the inhibition at 1 µM is below 50%. On to `O=C(Nc1cccc2cnccc12)NC1CC2(CCC2)Oc2c(F)cc(F)cc21` (single isomer, unassigned; (-)) [Example 60, (−) 1-(6,8-Difluoro-3,4-Dihydro-spiro[2H-1-benzopyran-2,1′-cyclobutane]-4-yl)-3-(isoquinolin-5-yl)urea], for which the “% inhibition of ^45Ca uptake at 1 μM” value is listed as below 50%. Regarding `O=C(Nc1cccc2cnccc12)NC1CC2(CCC2)Oc2ccc(Cl)cc21` (single isomer, unassigned; (-)) [Example 64, (−) 1-(6-Chloro-3,4-dihydro-spiro[2H-1-benzopyran-2,1′-cyclobutane]-4-yl)-3-(isoquinolin-5-yl)urea], the inhibition at 1 µM is below 50%. Still for that read-out and setting: the result for `O=C(Nc1cccc2cnccc12)NC1CC2(CCC2)Oc2cc(Cl)ccc21` (single isomer, unassigned; (-)) [Example 76, (−) 1-(7-Chloro-3,4-dihydro-spiro[2H-1-benzopyran-2,1′-cyclobutane]-4-yl)-3-(isoquinolin-5-yl)urea] reads below 50%. In the case of `O=C(Nc1cccc2nsnc12)NC1CC2(CCC2)Oc2ccccc21` (stereo not drawn) [Example 28, N-2,1,3-benzothiadiazol-4-yl-N′-3,3′,4,4′-tetrahydro-2′H-spiro[chromene-2,1′-cyclobutan]-4-ylurea (N-2,1,3-benzothiadiazol-4-yl-N′-3,4-dihydro-2H-spiro[chromene-2,1′-cyclobutan]-4-ylurea)], the “% inhibition of ^45Ca uptake at 1 μM” value is reported as below 50%. Consider `O=C(Nc1cccc2nsnc12)NC1CC2(CCC2)Oc2ccccc21` (stereo not drawn) [Example 29, N-2,1,3-benzothiadiazol-4-yl-N′-3,3′,4,4′-tetrahydro-2′H-spiro[chromene-2,1′-cyclobutan]-4-ylurea (N-2,1,3-benzothiadiazol-4-yl-N′-3,4-dihydro-2H-spiro[chromene-2,1′-cyclobutan]-4-ylurea)], for which the “% inhibition of ^45Ca uptake at 1 μM” value was below 50%.

On to `O=C(Nc1cccc2c(=O)[nH]ccc12)NC1CC2(CCC2)Oc2ccccc21` (stereo not drawn) [Example 30, N′-(1-oxo-1,2-dihydroisoquinolin-5-yl)-N-3,3′,4,4′-tetrahydro-2′H-spiro[chromene-2,1′-cyclobutan]-4-ylurea (N′-(1-oxo-1,2-dihydroisoquinolin-5-yl)-N-3,4-dihydro-2H-spiro[chromene-2,1′-cyclobutan]-4-ylurea)], for which the “% inhibition of ^45Ca uptake at 1 μM” value is given as below 50%.

As a reminder, the inhibition is the relative decrease from the control value, in per cent. For orientation: IC50 means the concentration at which inhibition is half-maximal.
